PMC7900953, “Location of a single histidine within peptide carriers increases mRNA delivery” (The Journal of Gene Medicine, 2020)

What was measured:
[1] = tested on: MDA‐MB‐231 cells; test: mRNA transfection with HK lipopolyplexes (HK peptide + DOTAP liposomes); type: cell-based; details: HK 4 μg, mRNA 1 μg, DOTAP 1 μg; luciferase 24 h
Procedure: Transfection with HK lipopolyplexes was carried out in a manner similar to that described above, with a few exceptions. In brief, the HK peptide (4 μg) in Opti‐MEM was mixed initially with mRNA (1 μg) for 30 minutes. This was followed by adding the DOTAP cationic liposome (1,2‐dioleoyl‐3‐trimethyl ammonium‐propane; 1 μg; Roche, Basel, Switzerland) for an additional 30 minutes. The Opti‐MEM mixture (50 μl) was then added dropwise to the cells.
FIGURE 8 Comparison of mRNA transfection with DOTAP and several HK peptides. To form lipopolyplexes, the HK peptides (4 μg) in Opti‐MEM were initially mixed with mRNA (1 μg) for 30 minutes. DOTAP liposomes (1 μg) were then added, gently mixed and allowed to stand for an additional 30 min. Polyplexes were prepared as described previously. These complexes in Opti‐MEM (50 μl) were then added to the cells and, 24 hours later, the luciferase activity was measured. *p < 0.05; **p < 0.01; ***p < 0.001
Figure S4. Transfection of mRNA (1 µg) with HK peptides (4 µg) and/or DOTAP liposomes (1 µg). Cells were transfected with mRNA lipoplexes, polyplexes, or lipopolyplexes as described in the Material and Methods section, and twenty-four h later, the luciferase activity was measured. ***, P<0.001; ****, P<0.0001

[2] = tested on: MDA‐MB‐231 cells; test: Cell viability assay (trypan blue exclusion); type: cell-based; details: polymer alone (4 µg), 5 h in Opti-MEM, then DMEM/10% FBS 19 h
Procedure: MDA‐MB‐231 cells were seeded at 5.0 × 10^4 per well in a 24‐tissue culture plate and incubated overnight in DMEM supplemented with 10% fetal bovine serum (FBS) serum. The media was then changed to Opti‐MEM and the cells were treated with either the polymer (4 μg) or the polyplex (4 μg of HK; 1 μg of mRNA) for 5 hours. After the media was changed to DMEM/10% FBS for 19 hours, the cell viability was measured using the trypan blue cell exclusion assay (Trypan Blue solution, 0.4%; Sigma‐Aldrich, St Louis, MO, USA). ^41
After the medium was changed to Opti-MEM, either the polymer (4 µg) or the polyplex (4 µg HK; 1 µg mRNA) was added to the cells for 5 h. The media was then changed to DMEM/10% FBS for 19 h and the cell viability was determined using the trypan cell exclusion assay.

[3] = tested on: MDA‐MB‐231 cells; test: In vitro uptake of HK polyplexes by flow cytometry; type: cell-based; details: HK:mRNA 4:1, 1, 2 and 4 hours, DMEM/10% FBS
Procedure: Intracellular uptake of polymer–mRNA complex in MDA‐MB‐231 was measured by flow cytometry. Twenty‐four hours before the treatment, cells were plated in a 24‐well plate. The polymer‐mRNA polyplex was formed in Opti‐MEM at a ratio of 4:1 at room temperature for 30 minutes. After the cell culture medium was replaced with DMEM/10% FBS, H3K(+H)4b‐ or H3K4b‐mRNA polyplexes (cyanine 5'‐labeled mRNA; Trilink Biotechnologies, Inc.) were added to the cells. At several time points (1, 2 and 4 hours), transfected cells were harvested, fixed with 4% formalin/1% glutaraldehyde, and resuspended in PBS buffer for analysis. The results from the fluorescently labeled MDA‐MB‐231 cells were then acquired using Cytoflex (Beckman Coulter) and analyzed using CytExpert, version 2.3.0.84 (Beckman Coulter) on the flow cytometer.
Figure S2. Uptake of cyanine 5-labeled mRNA uptake into MDA-MB-231 cells with different peptide carriers. The percentages of cells containing labeled mRNA 1, 2, 4 hours after transfection with H3K(+H)4b (upper panel) or with H3K4b (lower panel).

[4] = tested on: trypsin; test: Stability of HK polyplexes to enzymatic degradation; type: in vitro ADME; details: trypsin (0.025%) 30 or 60 min; HK (0.5, 1, 4 µg):mRNA (1 µg); release of mRNA on 1% agarose gel
Procedure: After preparation of the H3K4b‐ or H3k(+H)4b‐mRNA polyplexes [w:w; HK (0.5, 1 or 4 μg):mRNA (1 μg)], these polyplexes were incubated with trypsin (0.025%) for 30 or 60 minutes. The HK polyplexes were then loaded on a 1% agarose gel and electrophoresis was carried out at 75 V for 30 minutes in TAE buffer. The gel was stained in a TAE buffer containing ethidium bromide (1 μg/ml) for 10 minutes.
[picture] Figure S3. Stability of HK polyplexes to enzymatic degradation. After preparation of the H3K4b or H3k(+H)4b mRNA polyplexes (wt:wt; HK (0.5, 1, 4 µg):mRNA (1 µg)), these polyplexes were incubated with trypsin (0.025%) for 30 or 60 min. The HK polyplexes were then loaded on a 1% agarose gel and electrophoresis was carried out at 75 V for 30 min in TAE buffer. The gel was stained in a TAE buffer containing ethidium bromide (1 µg/ml) for 10 min.

[5] = Acid–base titration; type: physicochemical; details: 5 mg/ml, from pH 3.0, 5 μl aliquots of 0.05 M NaOH to about pH 9.0
Procedure: After the polymer solution [H2K4b, H3K4b, H3K(+H)4b and H4K4b] was adjusted to pH 3.0 (5 mg/ml; initial volume 1 ml), aliquots (5 μl) of NaOH (0.05 M) were stepwise added with the pH measured (FiveEasy™ meter; InLab Solids Pro‐ISM pH electrode; Mettler Toledo, Columbus, OH, USA). Titration was stopped at approximately pH 9.0.
FIGURE 2 Titration of different HK peptide solutions. Solutions of polymers (5 mg/ml) [H2K4b, H3K4b, H3K(+H)4b and H4K4b] were adjusted to pH 3 (initial volume 1 ml) and then 5‐μl aliquots of 0.05 N NaOH were stepwise added and the pH was measured

[6] = tested on: cytokines; details: in vitro and in vivo; cited from earlier work

| Substance | mRNA carrier effectiveness compared with DOTAP liposomes [1] | % Viability [2] | Uptake of Cy5-labelled mRNA polyplexes into cells [3] | Stability of mRNA polyplex to trypsin [4] | Buffering profile from pH titration curves [5] | Cytokine induction by siRNA polyplex [6] |
| --- | --- | --- | --- | --- | --- | --- |
| R = KHHHKHHHKHHHHKHHHK [H3K(+H)4b, four‐branched analogue of H3K4b with one extra histidine in the second ‐HHHK‐ motif] | significantly better carriers of mRNA than the DOTAP liposomes | 96.3% | imported into the cells more than H3K4b polyplexes | reduced stability to trypsin at the 1:2 and 1:1 ratios compared to the H3k(+H)4b polyplex | minimal differences in their buffering profile | – |
| R = KHHHKHHHKHHHKHHHK [H3K4b] | – | 95.6% | – | – | minimal differences in their buffering profile | induced cytokines to a significantly greater degree in vitro and in vivo than the H3K(+H)4b‐siRNA polyplexes |
